Consider one compound from patent US9074255B2, “Method of predicting a predisposition to QT prolongation” (Vanda Pharmaceuticals, Inc., priority 2009, dated 2015).

Data set [1] relates to QT interval. As to the kind of experiment: FAM13A1 SNP genotypes and QT prolongation (QTcF) following administration of iloperidone. It is filed as in vivo, human. Here is the method:
(§1) Since the QT interval changes with changes in heart rate, the QT interval is often measured as a corrected QT (QTc) interval. Any number of formulas may be employed to calculate the QTc, including, for example, the Fridericia formula (QTcF), the Bazett formula (QTcB), and the Rautaharju formula (QTp), among others. In the studies described herein, QT was calculated using the Fridericia formula. However, the present invention includes the use of any such formula or method for calculating a QTc or an uncorrected QT.

Data set [2] concerns QT interval. As to the kind of experiment: QT prolongation vs presence or absence of TT genotype at rs3775378 in 174 individuals given iloperidone. It counts as in vivo, human. Conditions: 24 mg/day B.I.D. oral, two weeks. Here is the method:
as §1, with “QT. Using the genotypes at the SNP loci above, it is possible, with a high degree of certainty, to predict an individual's predisposition to QT prolongation.” for “QT.”

With `COc1cc(C(C)=O)ccc1OCCCN1CCC(c2noc3cc(F)ccc23)CC1` [iloperidone, 1-[4-[3-[4-(6-fluoro-1,2-benzisoxazol-3-yl)-1-piperidinyl]propoxy]-3-methoxyphenyl]ethanone], the “Lowest QTc change (genotype)” value is given as “nonAB” with QT interval [1] (SNP_A-1824897, rs10008568, allele A=A, B=G); “non-BB” in the data set on QT interval [1] (SNP_A-1906173, rs3775378, allele A=C, B=T); “non-AA” in the data set on QT interval [1] (SNP_A-1943446, rs17014602, allele A=C, B=G); “non-BB” in the data set on QT interval [1] (SNP_A-1977994, rs17014483, allele A=C, B=T); “nonAA” in the data set with QT interval [1] (SNP_A-2152738, rs1458553, allele A=A, B=G); “nonAB” in the data set with QT interval [1] (SNP_A-2190887, rs2609260, allele A=A, B=G). In addition, the “Lowest QTc change (genotype)” value with QT interval [1] (SNP_A-4287986, rs2609265, allele A=C, B=T) was “nonAB”; with QT interval [1] (SNP_A-4290819, rs17014687, allele A=C, B=T) it was “non-BB”; in the data set on QT interval [1] (SNP_A-4291320, rs2609264, allele A=C, B=T), “nonAB”; in the data set with QT interval [1] (SNP_A-4296194, rs12507401, allele A=C, B=G), “non-AA”. The figures for the “High QT, + test (number of individuals)” value in the data set with QT interval [2] (Change threshold QT > 5 msec), in the data set on QT interval [2] (Change threshold QT > 15 msec) and with QT interval [2] (Change threshold QT > 30 msec) were 9, 8 and 6, respectively. In addition, the “High QT, − test (number of individuals)” value with QT interval [2] (Change threshold QT > 5 msec) came out at 101; in the data set with QT interval [2] (Change threshold QT > 15 msec) it was 59; with QT interval [2] (Change threshold QT > 30 msec), 22. Further, the “Low QT, + test (number of individuals)” value is recorded as 0 in the data set with QT interval [2] (Change threshold QT > 5 msec), 1 with QT interval [2] (Change threshold QT > 15 msec) and 3 with QT interval [2] (Change threshold QT > 30 msec). For the same compound, the “Low QT, − test (number of individuals)” value is 63 in the data set with QT interval [2] (Change threshold QT > 5 msec), 105 in the data set on QT interval [2] (Change threshold QT > 15 msec) and 142 with QT interval [2] (Change threshold QT > 30 msec).
